From patent US8436049B2, “Uses of pentamidine and related compounds” (State of Oregon Acting By and Through the State Board of …, priority 2008, dated 2013)
“And” between values parts separate entries of the source, which are not always exact repeats. Identical values can stand only once.

Key:
MBNL-cTNT interaction = molecular target: T1, MBNL-cTNT interaction (Homo sapiens, UniProt Q9NR56); assay: Gel shift assay, disruption of MBNL binding to cTNT pre-mRNA site; conditions: read-out: EC50 for disruption of MBNL binding to cTNT target construct
T1 construct: Both the full length MBNL and MBNL (1-260) constructs were cloned using BamHI and NotI restriction sites; GST (N, cleaved yes); made in house; host or cells: E. coli BL21-Star
T1 sequence (Q9NR56 1-382 isoform Q9NR56-5): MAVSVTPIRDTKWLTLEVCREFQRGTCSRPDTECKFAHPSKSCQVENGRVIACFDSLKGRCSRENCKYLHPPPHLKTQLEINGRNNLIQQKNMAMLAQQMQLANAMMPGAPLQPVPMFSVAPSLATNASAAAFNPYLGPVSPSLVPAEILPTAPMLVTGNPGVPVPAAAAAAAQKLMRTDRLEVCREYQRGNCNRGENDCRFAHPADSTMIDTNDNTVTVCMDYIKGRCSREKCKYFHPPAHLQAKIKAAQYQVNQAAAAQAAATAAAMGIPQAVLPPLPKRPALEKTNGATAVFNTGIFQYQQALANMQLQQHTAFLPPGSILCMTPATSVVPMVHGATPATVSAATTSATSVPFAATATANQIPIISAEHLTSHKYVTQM
Experimental: Solutions for the protein-RNA binding experiments contained 125 mM NaCl, 5 mM MgCl2, 20 mM Tris (pH 7.5), 7.5% glycerol, 2 mg/ml bovine serum albumin, and 0.1 mg/ml heparin. Prior to incubation, RNA substrates were annealed by incubation at 95° C. for 2 minutes and then placed directly on ice for 20 minutes in 66 mM NaCl, 6.7 mM MgCl2, and 27 mM Tris (pH 7.5). Protein was then added to the RNA in the presence or absence of the small molecule. The binding reaction was carried out in a 10 μL volume and was incubated for 10 minutes at room temperature before 2-4 μL were loaded on a pre-chilled 4° C. gel. […]
For binding curves, gels were quantified using ImageQuant® software (Molecular Dynamics, Piscataway, N.J.). The percent RNA bound was determined by taking the ratio of RNA-protein complex to total RNA, per lane. […] Binding curves were graphed using KaleidaGraph software (Synergy Software, Reading, Pa.). For the neomycin B and CUG8 gel shift, the apparent Kd was determined using Equation 1, where Y=fraction bound, m0=small molecule concentration, m1=total RNA concentration, and m2=Kd. […]
Pentamidine has been shown previously to bind to other RNAs and DNAs (Zhang et al., RNA 6:937-951, 2000); therefore, we determined pentamidine binding to an endogenous target of MBNL. […]

[1] = molecular target: CUG repeats (fluorescein labeled RNA); assay: Fluorescence anisotropy, direct binding to fluorescein labeled CUG repeats; conditions: absence of MBNL, 25° C.
Experimental: Fluorescent RNAs were ordered from Dharmacon RNA Technologies (Lafayette, Colo.), and deprotected according to the manufacturer's protocol. RNA was snap annealed in 175 mM NaCl, 20 mM Tris pH 7.5, 5 mM MgCl2. All fluorescence anisotropy experiments were performed in this buffer, with the addition of 0.1 mg/ml of heparin when using protein. Experiments were performed at 25° C. in a 7.5 mm wide Spectrosil® far UV quartz cuvette (Starna Cells, Inc, Atascadero, Calif.), using an L-format FluoroMax®-3 fluorimeter (Horiba Jobin Yvon, Inc., Edison, N.J.). Each anisotropy run was normalized by setting the initial value of the anisotropy of the RNA alone to zero, which converts the data into Δ anisotropy. Curves were graphed using KaleidaGraph (Synergy) software. For curve fitting of titrations and determining apparent Kd values, Equation 1 was used (Example 1). The error bars on the binding curve were obtained by averaging individual titration points from three separate experiments and calculating the standard deviation.
To determine if pentamidine binds to the CUG repeats and not to MBNL, fluorescein labeled CUG repeats (FIG. 3A) were used to monitor the binding of pentamidine directly to the CUG repeats in the absence of MBNL.

[2] = test system: Serca1 pre-mRNA splicing, HSA^LR transgenic mice; assay: Serca1 exon 22 splicing in vastus muscle of HSA^LR mouse model of DM; format: in vivo; conditions: intraperitoneal, HSA^LR control 17±4%, normal 99.7±0.1%
Experimental: Mouse handling and experimental procedures were conducted in accordance with the Association for Assessment and Accreditation of Laboratory Animal Care. HSA^LR transgenic mice in line 20b expressing human skeletal actin mRNA with ˜250 CUG repeats in the 3′ UTR were used (Mankodi et al., Science 289:1769-1772, 2000). Age- and gender-matched HSA^LR mice were injected intraperitoneally with pentamidine or saline (control). For a low-dose regimen, 25 mg/kg of pentamidine was administrated twice daily for 5 days. For a higher-dose regimen, 40 mg/kg of pentamidine was injected once daily for 7 days. Mice were sacrificed one day after the last injection, and vastus muscle was obtained for splicing analysis. […] PCR amplification was carried out for 22-24 cycles with the following primer pairs: Clc-1 forward, [sequence] (SEQ ID NO: 7), and reverse, [sequence] (SEQ ID NO: 8); Serca1 forward, [sequence] (SEQ ID NO: 9), and reverse, [sequence] (SEQ ID NO: 10). The PCR products were analyzed on agarose gels and scanned with a laser fluorimager (Typhoon, GE Healthcare, Piscataway, N.J.). Differences between the two groups were evaluated by Student's t-test.

[3] = mouse, in vivo
Experimental: Mouse handling and experimental procedures were conducted in accordance with the Association for Assessment and Accreditation of Laboratory Animal Care. HSA^LR transgenic mice in line 20b expressing human skeletal actin mRNA with ˜250 CUG repeats in the 3′ UTR were used (Mankodi et al., Science 289:1769-1772, 2000). Age- and gender-matched HSA^LR mice were injected intraperitoneally with pentamidine or saline (control). For a low-dose regimen, 25 mg/kg of pentamidine was administrated twice daily for 5 days. For a higher-dose regimen, 40 mg/kg of pentamidine was injected once daily for 7 days. Mice were sacrificed one day after the last injection, and vastus muscle was obtained for splicing analysis. […] The PCR products were analyzed on agarose gels and scanned with a laser fluorimager (Typhoon, GE Healthcare, Piscataway, N.J.). Differences between the two groups were evaluated by Student's t-test.
The ability of pentamidine to rescue mis-splicing in a mouse model (HSA^LR) where CUG repeats are expressed was tested. Pentamidine was administered by intraperitoneal injection in two dosage regimens, and mis-splicing of the Clc-1 and Serca1 pre-mRNAs was measured.

With N=C(N)c1ccc(OCCCCCOc2ccc(C(=N)N)cc2)cc1 [pentamidine] the EC50 (MBNL-cTNT interaction) was ~85 µM and 85 µM, the Kd [1] was ~19 µM and 19 µM and the “Serca1 exon 22 inclusion” value ([2]; 25 mg/kg twice daily for 5 days) was 22±2%. The “Serca1 exon 22 inclusion” value ([2]; 40 mg/kg once daily for 7 days) was 40±4% and the Toxicity in mice [3] was “substantial toxicity”.
